Experimental data: patent US8535740B2, “Compositions from Nigella sativa” (priority 2002, dated 2013)
Marks after values point to notes of the source that are not given here.

What was measured:
Caco-2 monolayers = assay: t10-CLA-induced loss of transepithelial electrical resistance in Caco-2 monolayers; type: cell-based, human
Source text: Caco-2 Cells-The protocol for growing and differentiation the human Caco-2 colon andenocarcinoma cells was a modification of Protocol 3 as described by Yamashita et al. [[…]., and Furuyama, Y. (2002) New and better protocols for a short-term Caco-2 cell culture system, J Pharm Sci 91, 669-679]. Caco-2 Human Colon Adenocarcinoma cells were obtained from ATCC (Rockville, Md.; catalog #HTB-37) and maintained in a growth media: DMEM (Dulbecco's Modified Eagles Medium 1×) containing L-glutamine, glucose; Cellgro catalog #35-010CV with the following additions: (1) Penicillin (5,000 IU/mL)/Streptomycin (5,000 μg/mL) Cellgro catalog #30-001C1, (2) 10% FBS-Fetal Bovine Serum, Characterized; Hyclone catalog #SH30071.3, and (3) 1% NEAA-Non Essential Amino Acids; Cellgro catalog #25-025-CI; cells were cultured at 37 C in a humidified air-5% CO2 atmosphere in T175 flasks. Differentiation of Caco-2 cells to intestinal epithelial cells-BIOCOAT^R HTS Caco-2 Assay System kits (Becton Dickinson, N.J.; catalog #354801) consisting of 24-well fibrillar collagen coated inserts and feeder trays were used in all experiments and plated as follows. Media was removed from the T175 flasks and cells were washed with 10 mLs PBS (phosphate buffered saline 1× without Ca^++, without Mg^++; Cellgro #25-053-CI). PBS was removed and 5 mL of Trypsin/EDTA (1×, 0.25% Trypsin/2.21 mM EDTA in HBSS; Cellgro #25-053-CI) were added to the flask and the flask placed at 37 C until cells were visibly floating, approximately 3-5 minutes. Five mL of growth media were added to the flask to neutralize the trypsin. This solution was then transferred to a sterile 50 mL tube. Eight μL were sampled and placed in a hemocytometer for counting under a microscope. Five-hundred μL of cell solution were placed in the upper chamber of each insert so that the final density per well was at least 6.6×10^5 cells/cm^2. Thirty-five mL of growth media were then added to the feeder tray and plate incubated at 37 C with 5% CO2 and 100% humidity for 20-24 hours. […]

[1] = system: prostate specific antigen (PSA) secretion from LNCaP prostate cells; assay: Prostate specific antigen secretion from LNCaP prostate cells; type: cell-based, human; conditions: for Effect on PSA Secretion over 24 Hours: LNCaP cells; for PSA secretion: 24 hours
Source text: Chemicals—PSA was quantified from the cell culture supernatant fluid using the Quantikine Human KLK3/PSA Immunoassay kit (R&D Systems, Inc., Minnaepolis, Minn.). All other materials used in this example were purchased from Sigma (St. Louis, Mo.) or otherwise noted and were of the highest purity commercially available. The N. sativa samples used in this study were those commercial-scale extracts described in Example 1. Cell culture and treatment—The LNCaP prostate cell line, which produces PSA, was used to study the effects of commercial-scale N. sativa scale extracts of Example 1 and pure TQ on the secretion of PSA. LNCaP cells were purchased from the American Type Culture Collection (ATCC, Manassas, Va.) and sub-cultured according to instructions supplied by ATCC. Prior to experiments, cells were cultured in DMEM containing 10% FBS-HI added 50 units penicillin/ml and 50 μg streptomycin/ml, and maintained in log phase prior to experimental setup. Cells were grown in a 5% CO2 humidified incubator at 37° C. Components of medium included: (1) 10% FBS/DMEM (Fetal Bovine Serum/Dulbecco's Modified Eagle's Medium) containing 4.5 g glucose/L; (2) 50 U/ml penicillin; and (3) 50 μg/ml streptomycin. Growth medium was made by adding 50 ml of heat inactivated FBS and 5 ml of penicillin/streptomycin to 500 ml DMEM. This medium was stored at 4° C. Before use, the medium was warmed to 37° C. in a water bath. LNCaP cells were seeded at an initial density of 6×10^4 cells/cm^2 in 96-well plates. For two days, the cells were allowed grow to reach confluence. On day three post seeding, cells were treated with TQ, NS8, NS9, NS10, Spent#1, and NSSpent#2 at the concentrations listed in FIGS. 5, 6 and 7. Twenty-four hours later, the supernatant media were sampled and assayed for PSA.

[2] = DPPH free radical scavenging (antioxidant) activity; type: biochemical; conditions: computed on basis of TQ content
Experimental: Methodology—Antioxidant activity was determined utilizing 2,2-diphenyl-1-picrylhydrazyl (DPPH), which is a stable radical. […] The color turns from purple to yellow as the molar absorption of the DPPH radical at 550 nm is reduced when the odd electron of DPPH radical becomes paired with hydrogen from a free radical scavenging antioxidant to form the reduced DPPH-H. The test samples were dissolved in methanol containing 1% dimethyl sulfoxide and added to microtiter wells in 100 μL aliquots to 100 μL of a 100 μM DPPH solution in methanol. Readings were taken at 10, 30 and 60 minutes following the addition of the test material. Percent inhibition of the DPPH radical by the test material was computed relative to the inhibition of the DPPH radical by the vitamin E analog trolox and tabulated as μmol trolox/g test material.

CC1=CC(=O)C(C(C)C)=CC1=O [Thymoquinone (Sigma), thymoquinone]
Relative Loss of TEER (Caco-2 monolayers; 50 μM t10-CLA stimulus, positive control set to 100, each material at its tabulated concentration (TQ 5.0, NS8 0.11, NS9 0.99, NS10 0.012, NSSpent#2 0.0005 μg TQ equivalents/mL; Spent#1 5 μg/mL)): 44.5* | effect on loss of TEER in t10-CLA-stimulated Caco-2 cells (Caco-2 monolayers; concentrations of Table 7): inhibited loss of TEER | Effect on PSA Secretion over 24 Hours [1]: Decreased PSA at 5 and 10 μg/mL, dramatic increase | Effect on PSA Secretion over 24 Hours ([1]; listed as TQ): decreased PSA only at the two lowest doses tested | PSA secretion ([1]; highest dose (100 μg/mL per Table 4)): 207% | PSA secretion ([1]; second highest dose (50 μg/mL per Table 4)): 166% | DPPH Reducing Activity [2]: 45.2 μmol Trolox/g TQ
